Experimental data from patent US9962398B2, “Sulfonamide compounds for inhibition of metastatic tumor growth” (Welichem Biotech Inc., priority 2010, dated 2018).
Where two headings read alike, the source gives them in different places.

What was measured:
4T1 cells = assay: Measurement of extracellular pH in hypoxia, 4T1 cells; assay type: cell-based, mouse; conditions: 72 h, 400 uM MST-017
Experimental: (§1) Changes in solution pH were assessed using procedures published previously (29, 42, 43). In brief, cells were plated at appropriate density (1×10^4 cells/cm2 for 4T1 cells and its transfected derivatives, 2×10^4 cells/cm2 for 66cl4 cells, 1×10^4 cells/cm2 for 67NR cells and its transfected derivatives) in 60 mm dishes and allowed to recover overnight. A standard volume of 3 ml of fresh media/dish was then added and cells were incubated in normoxia (air+5% CO2) or hypoxia (1% O2 and 5% CO2 balanced with nitrogen) for 72 h. Care was taken to ensure that cultures grown in normoxia and hypoxia were at similar confluence and contained similar cell numbers at the time of medium collection. Collected spent media was maintained at 37° C. and pH was measured immediately using a digital pH meter. […] Cells were harvested on ice for qRT-PCR and Western blot analysis.
(§2) Ureido sulfonamides are new.
(§3) Cells were cultured for 72 h in the presence of 10 μM MST-017. Shown in FIG. 9 are representative images of the FITC-tagged inhibitor bound to the cell lines in the indicated conditions. […] For each cell line, changes in the extracellular pH in hypoxia were assessed relative to the baseline extracellular pH measured in parallel cultures grown in normoxia. *P<0.001 with a two-sided Student's t-test, compared to cells cultured without inhibitor.

67NR-derived tumors = conditions: mouse, in vivo
Experimental: For in vivo studies, the MST-017 inhibitor was administered by i.p. injection (first two doses were administered i.v.) at 75 mg/kg and 150 mg/kg 3× per week for 2 weeks. […] The compounds were solubilized in PEG400/ethanol/saline prior to injection. Vehicle components were held constant as inhibitor concentrations were varied.
(§4) Primary tumor growth rates were calculated from caliper measurements using the modified ellipsoid formula (L×W^2)/2.

66cl4 cells = assay: Measurement of extracellular pH in hypoxia, 66cl4 cells; assay type: cell-based, mouse; conditions: 72 h, 600 uM MST-017
Experimental: as §1, §2
as §3, with “Shown” for “Cells were cultured for 72 h in the presence of 10 μM MST-017. Shown”

4T1 primary tumors = conditions: mouse, in vivo
Experimental: For in vitro studies, the compounds were dissolved in DMSO, stored at −80° C. and diluted into culture medium just prior to application. […] For in vivo studies, the MST-017 inhibitor was administered by i.p. injection (first two doses were administered i.v.) at 75 mg/kg and 150 mg/kg 3× per week for 2 weeks. […] The compounds were solubilized in PEG400/ethanol/saline prior to injection. Vehicle components were held constant as inhibitor concentrations were varied.
as §4
Animals were inoculated orthotopically with 4T1 cells. Tumors were allowed to establish for 14 days. Mice were injected with the indicated doses of MST-017 3× per week for 2 weeks. Left panel, tumor growth was monitored by caliper-based measurement. […] Vehicle-treated and untreated animals served as controls. *P<0.02, **P<0.01 using a 2-sided Student's t-test, compared to vehicle controls.
The weights of treated animals were monitored as a measure of general inhibitor toxicity. Mice were weighed just prior to each dose of the CAIX inhibitor.

hCA IX = hCA IX (Homo sapiens (Human), UniProt Q16790)
hCA XII = hCA XII (Homo sapiens (Human), UniProt O43570); conditions: read-out: KI (nM) Activity hCAXII; Table 1
MDA-231 LM2-4 Luc+ cells = assay: 3D Matrigel invasion assay in hypoxia; assay type: cell-based, human; conditions: 4 days in hypoxia
Experimental: A 3D “on-top” matrigel culture assay was performed as described previously (Lee et al, (2007) Nat Methods 4:359-365). […] Cells were allowed to attach for 45 minutes with side-to-side agitation every 10-15 minutes to prevent clumping of cells in the center of the well. An additional 100 μl/well media containing 10% matrigel was added to the cells and cultures were incubated in hypoxia for 4 days. Images were acquired and cultures were fixed for TUNEL using the “whole culture fixation” methodology outlined in Lee et al, (2007) Nat Methods 4:359-365).
Treatment with novel sulfonamide inhibitors of CAIX attenuates hypoxia-induced invasion of human breast cancer cells grown in 3D Matrigel™ cultures (FIG. 16). Cells were cultured in 3D “on-top” Matrigel™ assays for 4 days in hypoxia in the presence of inhibitors. DMSO-treated cell cultures served as controls. The percentage concentration of DMSO and molar concentration of inhibitors are indicated. Representative phase contrast images are shown.

hCA I = hCA I (Homo sapiens (Human), UniProt P00915); conditions: read-out: KI (nM) Activity hCAI; Table 1
4T1 mammary tumor cells = assay: Experimental metastasis assay, intravenous 4T1 cells, bioluminescence; assay type: in vivo, mouse; conditions: i.v. 4T1 cells, three i.p. doses over 6 days, imaged 24 h after third dose
Experimental: For studies involving genetic depletion of CAIX, 4T1 or 67NR cells (5×10^5) were injected directly into the tail vein of 7-9 week-old female BALB/c mice. Mice were imaged once per week to follow the growth of metastases. Mice were euthanized 20 days post-injection and lungs were resected for further analysis. Tumor burden in the lung was quantified by manually counting nodules visible on the lung surface. For studies using sulphonamide inhibitors, 4T1 cells (1-5×10^5) were injected as described above (Pacchiano et al, (2011) J Med Chem 54:1896-1902).
Animals were treated 24 hours post inoculation of cells. Three doses were administered by i.p. injection over 6 days and the mice were imaged 24 hours following the third dose of inhibitor. […] Quantification of tumor-derived bioluminescence is shown in 12C. Regions of interest were positioned around metastatic foci and total flux (photons/sec) at the mouse surface was calculated. Data are reported as the mean±s.e.m. N=4 per group. *P<0.05.
4T1 cells were injected directly into the tail vein of BALB/c mice. […] Vehicle and inhibitor were administered by i.p. injection. Shown are representative images of tumor-cell derived bioluminescence in control and inhibitor-treated animals.

[1] = read-out: KI (nM) Activity hCAIX, Table 1
[2] = read-out: Ki (nM) hCA IX, Table 2
[3] = read-out: Ki (nM) hCA IX, Table 3

hCA I, sequence (P00915 whole entry): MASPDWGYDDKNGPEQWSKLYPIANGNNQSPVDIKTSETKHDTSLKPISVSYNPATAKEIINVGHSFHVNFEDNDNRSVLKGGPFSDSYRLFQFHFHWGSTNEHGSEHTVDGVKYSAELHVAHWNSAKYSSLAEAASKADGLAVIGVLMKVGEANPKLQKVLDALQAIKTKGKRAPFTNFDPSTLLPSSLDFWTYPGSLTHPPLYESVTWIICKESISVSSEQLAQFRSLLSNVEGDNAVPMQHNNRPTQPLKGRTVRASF
hCA XII, sequence (O43570 25-354): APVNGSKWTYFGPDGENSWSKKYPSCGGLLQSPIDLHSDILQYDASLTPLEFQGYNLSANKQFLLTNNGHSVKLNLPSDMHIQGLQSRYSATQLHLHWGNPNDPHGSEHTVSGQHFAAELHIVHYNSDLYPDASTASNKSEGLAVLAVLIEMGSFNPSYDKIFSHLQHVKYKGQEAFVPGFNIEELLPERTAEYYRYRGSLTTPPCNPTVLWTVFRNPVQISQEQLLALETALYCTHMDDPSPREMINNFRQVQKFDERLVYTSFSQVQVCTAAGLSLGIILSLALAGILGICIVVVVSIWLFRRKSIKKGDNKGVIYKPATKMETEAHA

Row | Structure (SMILES) | Ki (hCA IX; [1]) [nM] | Ki (hCA XII) [nM] | further results
1 | NS(=O)(=O)c1ccc(CCNC(=S)Nc2ccc(-c3c4ccc(=O)cc-4oc4cc(O)ccc34)c(C(=O)O)c2)cc1 [MST-017] | – | – | change in extracellular pH (4T1 cells): reversed acidification of the extracellular medium; tumor growth (67NR-derived tumors): no significant effect; weights of treated animals (67NR-derived tumors): no significant weight reduction; change in extracellular pH (66cl4 cells): reversed acidification of the extracellular medium; tumor growth (4T1 primary tumors): significant inhibition of tumor growth; weights of treated animals (4T1 primary tumors): no significant weight reduction
2 | NS(=O)(=O)c1ccc(NC(=O)Nc2ccc(Br)cc2)cc1 [MST-105, 4-({[(4′-Bromophenyl)amino]carbonyl}amino)benzenesulfonamide] | 69.3 | 7.9 | –
3 | NS(=O)(=O)c1ccc(NC(=O)Nc2ccc(I)cc2)cc1 [MST-106, 4-{[(4′-Iodophenyl)carbamoyl]amino}benzenesulfonamide] | 24.5 | 4.3 | –
4 | NS(=O)(=O)c1ccc(NC(=O)Nc2c(F)c(F)c(F)c(F)c2F)cc1 [MST-107, 4-{[(Pentafluorophenyl)carbamoyl]amino}benzenesulfonamide] | 5.4 | 5.1 | hypoxia-induced invasion (MDA-231 LM2-4 Luc+ cells): inhibit invasion
5 | COc1ccccc1NC(=O)Nc1ccc(S(N)(=O)=O)cc1 [MST-108] | 465 | 61.2 | Ki (hCA I): 92 nM
6 | CC(=O)c1ccc(NC(=O)Nc2ccc(S(N)(=O)=O)cc2)cc1 [MST-109, 4-{([(4′-Acetylphenyl)amino]carbonyl)amino}benzenesulfonamide] | – | 4.6 | –
7 | CC(C)c1ccccc1NC(=O)Nc1ccc(S(N)(=O)=O)cc1 [MST-110, 4-{([(2′-Isopropylphenyl)amino]carbonyl)amino}benzenesulfonamide] | 0.5 | 4.2 | –
8 | CC(C)c1ccc(NC(=O)Nc2ccc(S(N)(=O)=O)cc2)cc1 [MST-111, 4-{([(4′-Isopropylphenyl)amino]carbonyl)amino}benzenesulfonamide] | 541 | 49.7 | –
9 | CCCCc1ccc(NC(=O)Nc2ccc(S(N)(=O)=O)cc2)cc1 [MST-112, 4-({[(4′-Butylphenyl)amino]carbonyl}amino)benzenesulfonamide] | 376 | 28.5 | –
10 | CCCCOc1ccc(NC(=O)Nc2ccc(S(N)(=O)=O)cc2)cc1 [MST-113, 4-{[(4′-Butoxyphenyl)carbamoyl]amino}benzenesulfonamide] | 0.8 | 2.5 | –
11 | N#Cc1ccc(NC(=O)Nc2ccc(S(N)(=O)=O)cc2)cc1 [MST-115, 4-{[(4′-Cyanophenyl)carbamoyl]amino}benzenesulfonamide] | 6 | 6.5 | Ki (hCA I): 57 nM
12 | N#Cc1ccccc1NC(=O)Nc1ccc(S(N)(=O)=O)cc1 [MST-116, 4-{([(2′-Cyanophenyl)amino]carbonyl)amino}benzenesulfonamide] | 0.3 | 4.6 | Ki (hCA I): 10.9 nM
13 | NS(=O)(=O)c1ccc(NC(=O)Nc2ccc(Oc3ccccc3)cc2)cc1 [MST-117, 4-({[(4′-Phenoxyphenyl)amino]carbonyl}amino)benzenesulfonamide] | 69.1 | 7.1 | Ki (hCA I): 604 nM
14 | NS(=O)(=O)c1ccc(NC(=O)Nc2cccc([N+](=O)[O-])c2)cc1 [MST-119, 4-{[(3′-Nitrophenyl)carbamoyl]amino}benzenesulfonamide] | 0.9 | – | formation of metastases (tumor-derived bioluminescence) (4T1 mammary tumor cells): reduces the formation of metastases; hypoxia-induced invasion (MDA-231 LM2-4 Luc+ cells): inhibit invasion
15 | COc1ccc(NC(=O)Nc2ccc(S(N)(=O)=O)cc2)c(C)c1 [MST-120, 4-{([(4′-Methoxy-2′-methylphenyl)amino]carbonyl)amino}benzenesulfonamide] | – | 6 | –
16 | NS(=O)(=O)c1ccc(NC(=O)NC2CCCC2)cc1 [MST-122, 4-[(Cyclopentylcarbamoyl)amino]benzenesulfonamide] | 7.3 | 7 | –
17 | NS(=O)(=O)c1ccc(NC(=O)Nc2ccc(Cl)cc2)cc1 [MST-124, 4-{([(4′-chlorophenyl)amino]carbonylamino)}benzenesulfonamide] | – | 5.3 | –
18 | NS(=O)(=O)c1cccc(NC(=O)Nc2ccc(I)cc2)c1 [MST-128, 3-(3-(4′-Iodophenyl)ureido)benzenesulfonamide] | – | – | Ki (hCA IX; [2]): 13.1 nM
19 | NS(=O)(=O)c1cccc(NC(=O)Nc2ccc(F)cc2)c1 [MST-129, 3-(3-(4′-Fluorophenyl)ureido)benzenesulfonamide] | – | – | Ki (hCA IX; [2]): 10.2 nM
20 | NS(=O)(=O)c1cccc(NC(=O)Nc2cccc([N+](=O)[O-])c2)c1 [MST-130, 3-(3-(3′-Nitrophenyl)ureido)benzenesulfonamide] | – | – | Ki (hCA IX; [2]): 7.9 nM; hypoxia-induced invasion (MDA-231 LM2-4 Luc+ cells): inhibit invasion
21 | CC(=O)c1ccc(NC(=O)Nc2cccc(S(N)(=O)=O)c2)cc1 [MST-131, 3-(3-(4′-Acetylphenyl)ureido)benzenesulfonamide] | – | – | Ki (hCA IX; [2]): 15.1 nM
22 | CC(C)c1ccccc1NC(=O)Nc1cccc(S(N)(=O)=O)c1 [MST-132, 3-(3-(2′-Isopropylphenyl)ureido)benzenesulfonamide] | – | – | Ki (hCA IX; [2]): 18.5 nM
23 | NS(=O)(=O)c1ccc(NC(=O)Nc2ccc(Cl)cc2F)cc1 [MST-134, 4-(3-(4′-chloro-2-fluorophenyl)ureido)benzenesulfonamide] | – | – | Ki (hCA IX; [3]): 5.1 nM
24 | NS(=O)(=O)c1ccc(NC(=O)Nc2cc(F)c(F)cc2F)cc1 [MST-137, 4-(3-(2′,4′,5′-trifluorophenyl)ureido)benzenesulfonamide] | – | – | Ki (hCA IX; [3]): 7.6 nM
25 | NS(=O)(=O)c1ccc(NC(=O)Nc2cc(C(F)(F)F)ccc2F)cc1 [MST-138, 4-(3-(2′-fluoro-5′-(trifluoromethyl)phenyl)ureido)benzenesulfonamide] | – | – | Ki (hCA IX; [3]): 7.4 nM
26 | NS(=O)(=O)c1ccc(NC(=O)Nc2ccc(F)c(F)c2F)cc1 [MST-140, 4-(3-(2′,3′,4′-trifluorophenyl)ureido)benzenesulfonamide] | – | – | Ki (hCA IX; [3]): 9.6 nM
27 | NS(=O)(=O)c1ccc(NC(=O)Nc2ccccc2F)cc1 [MST-141, 4-(3-(2′-fluorophenyl)ureido)benzenesulfonamide] | – | – | Ki (hCA IX; [3]): 7.7 nM
28 | NS(=O)(=O)c1ccc(NC(=O)Nc2ccc(F)cc2F)cc1 [MST-142, 4-(3-(2′,4′-difluorophenyl)ureido)benzenesulfonamide] | – | – | Ki (hCA IX; [3]): 3.7 nM
29 | NS(=O)(=O)c1ccc(NC(=O)Nc2cc(Cl)ccc2Cl)cc1 [MST-144, 4-(3-(2′,5′-dichlorophenyl)ureido)benzenesulfonamide] | – | – | Ki (hCA IX; [3]): 8.9 nM
30 | NS(=O)(=O)c1ccc(NC(=O)Nc2cc([N+](=O)[O-])ccc2Cl)cc1 [MST-145, 4-(3-(2′-Chloro-5-nitrophenyl)ureido)benzenesulfonamide] | – | – | Ki (hCA IX; [3]): 8.2 nM
